Earlier results, collected in US7361789B1, “Dihydronaphthalene compounds, compositions, uses thereof, and methods for synthesis” (Amgen Inc., priority 2004, dated 2008).
Read-outs that look alike come from different tables or passages of the source.

solubility in water (neutral pH): less than 1 μg/mL
solubility (pH is about 1): about 0.1 mg/mL
solubility (pH ranges from about 3 to about 5): about 1.6 mg/mL
SMILES: C[C@@H](NCCCc1cccc(C(F)(F)F)c1)c1cccc2ccccc12 [cinacalcet]
